Experimental data from article PMC12349723, “Computationally accelerated identification of P-glycoprotein inhibitors” (PLOS One, 2025).
Several values for one entry are separate records, joined by “and”; a condition that tells them apart may be missing. Equal values may be shown once.

Legend:
[1] = target: T1, P-gp (Homo sapiens, UniProt P08183); assay: LC-MS/MS intracellular accumulation assay with or without tariquidar (P-gp transport substrate test) in DU145-TXR cells; format: in vitro ADME; conditions: for P-gp transport substrate assessment: 5 µM compound with or without 500 nM tariquidar, LC-MS/MS
T1 construct: The MDR, P-gp overexpressing DU145-TXR cells were maintained under positive selection pressure; endogenous in cells; host or cells: DU145-TXR (paclitaxel-resistant sub-line of DU145 human prostate cancer cells)
T1 sequence (P08183 whole entry): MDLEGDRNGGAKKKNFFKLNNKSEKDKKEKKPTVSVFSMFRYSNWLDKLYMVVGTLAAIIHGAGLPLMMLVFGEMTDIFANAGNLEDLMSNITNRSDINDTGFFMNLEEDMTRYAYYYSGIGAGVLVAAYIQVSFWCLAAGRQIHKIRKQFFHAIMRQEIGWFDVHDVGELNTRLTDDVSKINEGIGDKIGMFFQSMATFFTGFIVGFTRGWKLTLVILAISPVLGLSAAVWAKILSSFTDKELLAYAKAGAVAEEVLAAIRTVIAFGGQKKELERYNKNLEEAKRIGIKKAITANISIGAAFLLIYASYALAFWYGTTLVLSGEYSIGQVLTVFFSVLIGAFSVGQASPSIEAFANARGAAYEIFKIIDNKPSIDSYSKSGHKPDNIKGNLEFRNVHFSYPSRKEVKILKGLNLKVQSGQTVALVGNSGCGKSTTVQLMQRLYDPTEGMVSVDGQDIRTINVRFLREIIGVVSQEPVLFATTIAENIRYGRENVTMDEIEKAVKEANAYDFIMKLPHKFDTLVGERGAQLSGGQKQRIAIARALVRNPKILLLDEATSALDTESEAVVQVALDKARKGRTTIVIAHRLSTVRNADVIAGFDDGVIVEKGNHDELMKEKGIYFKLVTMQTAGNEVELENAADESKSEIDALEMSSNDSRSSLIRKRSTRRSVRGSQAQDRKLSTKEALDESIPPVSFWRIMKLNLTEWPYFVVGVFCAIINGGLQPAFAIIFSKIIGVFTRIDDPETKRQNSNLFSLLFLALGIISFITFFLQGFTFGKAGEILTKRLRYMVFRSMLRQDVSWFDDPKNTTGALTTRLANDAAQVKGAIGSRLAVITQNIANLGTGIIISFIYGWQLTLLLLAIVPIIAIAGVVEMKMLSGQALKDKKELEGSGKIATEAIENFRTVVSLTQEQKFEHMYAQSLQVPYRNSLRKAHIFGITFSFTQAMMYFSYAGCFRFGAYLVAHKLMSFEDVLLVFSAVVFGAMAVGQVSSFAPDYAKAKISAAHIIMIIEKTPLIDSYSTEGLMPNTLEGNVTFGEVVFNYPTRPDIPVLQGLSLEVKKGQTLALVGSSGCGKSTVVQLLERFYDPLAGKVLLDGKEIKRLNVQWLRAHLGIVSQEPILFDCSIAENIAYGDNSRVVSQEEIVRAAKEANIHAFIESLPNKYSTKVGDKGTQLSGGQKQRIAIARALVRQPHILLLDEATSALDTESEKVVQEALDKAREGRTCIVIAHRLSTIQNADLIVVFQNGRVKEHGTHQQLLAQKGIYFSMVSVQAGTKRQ
Summary of the method: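 Analyte peak area normalised to internal standard and to lysate protein (BSA curve); relative accumulation compared between −/+ TQR by Student's t-test. Daunorubicin served as P-gp substrate positive control.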

[2] = tested on: A2780 cells; assay: MTT viability assay, parental A2780 cells, with or without PTX; format: cell-based, human; conditions: for Increase of PTX toxicity against parental A2780 cells: 15 µM compound with or without 500 nM PTX, 48 h, MTT; for Mean % Survival / % Survival (individual sample): A2780 cells; for Mean % Survival / viability at 15 µM: mean of 8 or 12 samples; for % Survival (individual sample): single samples; for viability at 15 µM: Homo sapiens, A2780, A2780 cells, read-out: Mean % Survival
Summary of the method: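 A2780 and doxorubicin-selected (100 nM) P-gp-overexpressing A2780-ADR cells, 3,000/well in RPMI + 10% FBS, were exposed to compounds, with or without chemotherapeutic, for 48 h at 37 °C. MTT read at 570 nm after 4 h; survival expressed as percent of vehicle, or vehicle-plus-chemotherapeutic, control.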

[3] = DU145-TXR, 5 µM compound, 2.5 h, with 500 nM tariquidar, mean ± SD, triplicate
[4] = DU145-TXR, 5 µM compound, 2.5 h, without tariquidar, mean ± SD, triplicate
[5] = significant difference = likely P-gp transport substrate

Compound	P-gp transport substrate assessment ([1]; DU145-TXR, 2.5 h)	Intracellular accumulation (normalized ratio of compound to internal standard), Trial 1, + TQR [1, 3]	Intracellular accumulation (normalized ratio of compound to internal standard), Trial 2, + TQR [1, 3]	Intracellular accumulation (normalized ratio of compound to internal standard), Trial 3, + TQR [1, 3]	Intracellular accumulation (normalized ratio of compound to internal standard), Trial 1, - TQR [1, 4]	Intracellular accumulation (normalized ratio of compound to internal standard), Trial 2, - TQR [1, 4]	Intracellular accumulation (normalized ratio of compound to internal standard), Trial 3, - TQR [1, 4]	P (- TQR vs + TQR), Trial 1 ([1]; Student's T test of the mean)	P (- TQR vs + TQR), Trial 2 ([1]; Student's T test of the mean)	P (- TQR vs + TQR), Trial 3 ([1]; Student's T test of the mean)	Significance of accumulation with tariquidar, Trial 1 [1, 5]	Significance of accumulation with tariquidar, Trial 2 [1, 5]	Significance of accumulation with tariquidar, Trial 3 [1, 5]	Increase of PTX toxicity against parental A2780 cells [2]	Mean % Survival ([2]; 15 µM compound + 500 nM PTX)	% Survival (individual sample) ([2]; 15 µM compound + 500 nM PTX)	% Survival (individual sample) ([2]; 15 µM compound alone)	viability at 15 µM ([2]; 15 µM compound alone)
Cc1ccc(-c2noc(-c3cn(Cc4ccc(NS(=O)(=O)c5ccccc5F)cc4)cn3)n2)cc1 [Compound 103, Cc1ccc(cc1)-c1noc(n1)-c1cn(Cc2ccc(NS(=O)(=O)c3ccccc3F)cc2)cn1]	potential P-gp transport substrates	5.61 ± 1.34	3.75 ± 0.34	3.73 ± 0.15	5.13 ± 0.6	2.63 ± 0.52	3.21 ± 0.23	0.6	0.04	0.03	N.S. (P > 0.05 = not significant (N.S.))	* (P < 0.05 = *)	* (P < 0.05 = *)	did not greatly increase the toxicity of PTX against the parental A2780 cells	13.6%	10% and 18% and 19%	63%	52.9%
Cc1onc(-c2ccccc2)c1-c1nnc(Cn2cnc3c(oc4ccccc43)c2=O)o1 [Compound 78, Cc1onc(c1-c1nnc(Cn2cnc3c4ccccc4oc3c2=O)o1)-c1ccccc1]	unlikely to be transport substrates of P-gp	0.001 ± 0.000	0.001 ± 0.000		0.001 ± 0.000	0.001 ± 0.000								did not greatly increase the toxicity of PTX against the parental A2780 cells	13.4%	8% and 18%	110%	91.4%
O=S(=O)(Cc1nc2ccccc2n1CC(O)c1ccc(Cl)cc1)c1ccccc1 (centres unmarked) [Compound 97, OC(Cn1c(CS(=O)(=O)c2ccccc2)nc2ccccc12)c1ccc(Cl)cc1]	unlikely to be transport substrates of P-gp	0.08 ± 0.03	0.10 ± 0.02		0.07 ± 0.02	0.10 ± 0.02		0.7	> 1		N.S. (P > 0.05 = not significant (N.S.))	N.S. (P > 0.05 = not significant (N.S.))		did not greatly increase the toxicity of PTX against the parental A2780 cells	13.0%	8% and 19%		89.8%
